The nature of experiment [1]: Anti-arrhythmic activity (single compound test).
The target in experiment [2] is T1, dopamine receptor (Rattus norvegicus, UniProt P61169).
T1 construct: the caudate nucleus is quickly dissected out; from tissue; host or cells: caudate nucleus of male Hooded Lister rats, homogenate
The settings on record: literature; cited from earlier work.

In experiment [3] the test system is Dopamine Receptor. The experiment in a line: Inhibition of apomorphine induced climbing in the mouse. It is filed as in vivo. To be noted: p.o., apomorphine 1 mg/kg s.c. Here is the method:
(§1) I. Dopamine Receptor Blocking Activity in the Central Nervous System
(b) Inhibition of apomorphine induced climbing in the mouse
The test is based on that described by Protais, P., Constantin, J. and Schwartz J.C. (1976), Psychopharmacology, 50, 1-6.
Apomorphine 1 mg/kg s.c. induces mice to climb the wall of a wire cage (inverted food hopper--11×7.5×18 cm high). Mice acclimatised in their home cages in groups of 5 are placed under the hoppers immediately after the injection of apomorphine 1 mg/kg s.c. At 10,20 and 30 minutes after injection climbing behaviour is scored. The mice are observed for 30 seconds and scored according to the position they spend the majority of time in, score 0--four paws on floor of cage; score 1--fore paws only on walls; score 2--all paws on wall of cage. The scores at all 3 times and for each mouse are summed and mice drug treated orally compared to mice receiving apomorphine only. A saline only treated group is also included and any score, generally <5% of maximum taken into account.

The target in experiment [4] is T1, dopamine receptor. Description: In vitro displacement of radiolabelled spiroperidol from dopamine receptor membranes. Format: binding, rat (Male Hooded Lister). The settings on record: 0.25 h; 10^-5 M compound; 0.5 nM [3H]-spiroperidol; rat caudate nucleus membranes; read-out: I(c) Spiroperidol Displacement % at 10^-5 M. Here is the method:
(c) In vitro displacement of radiolabelled spiroperidol from dopamine receptor membranes
Therefore a compound which displaces this ligand from dopamine receptor membranes may have neuroleptic properties.
Male Hooded Lister rats (200-300 g) are decapitated and the caudate nucleus is quickly dissected out. This is homogenised in ice cold Tris buffer (pH 7.7 at 25° C.) at a concentration of 10 mg/ml wet weight of tissue. The test compound (at 10^-5 M) or spiroperidol (standard curve from 10^-5 to 10^-9 M) is added to the assay tubes followed by 0.5 nM [^3 H]-spiroperidol. This is mixed with 500 μl of the membrane preparation and the assay tubes are incubated for 15 minutes at 37° C. After this period 4 ml ice cold Tris buffer is added to each tube and the solutions are filtered through per-soaked glass fibre filters. The filter is washed twice with 4 ml of the buffer and then transferred to a scintillation vial for counting. Single concentration results are given as a percentage of [^3 H]-spiroperidol displaced.

In experiment [5] the test system is Dopamine Receptor. The experiment in a line: Inhibition of apomorphine induced stereotype behaviour in the rat. It is filed as in vivo. The settings on record: s.c., apomorphine induced, complete inhibition, IA(x) = inactive at dose in brackets.
From the text: as §1
(a) Inhibition of apomorphine induced stereotype behaviour in the rat
(method of Ernst (1967), Psychopharmacologia (Berl.) 10 316-323).

A further experiment relates to gastric emptying. The experiment in a line: Increase in gastric emptying: reversal of apomorphine induced delay in gastric emptying in the rat. It is filed as in vivo. To be noted: for III(b) Increase in Gastric Emptying: 10 mg/kg s.c., apomorphine HCl 5 mg/kg s.c. induced delay. Here is the method:
(b) Increase in gastric emptying: reversal of apomorphine induced delay in gastric emptying in the rat
Rats equipped with chromic gastric fistulae were used and it was through this that 5 ml of a test meal (5 ml phosphate buffer at pH 9) was administered and recovered. The % recovery of the standard meal after remaining in the stomach for 10 minutes was taken as an index of gastric emptying. Delay in gastric emptying was induced by the administration of apomorphine HCl (5 mg/kg subcutaneously) which was given 15 minutes prior to the subcutaneous administration of the compound. The % recoveries of the test meal were determined at 15-25 and 45-55 minutes post-dosing with the compound and compared with vehicle only dosed animals set up simultaneously. Six animals were used for each group.

The next experiment deals with intragastric pressure. The experiment in a line: Increase in intragastric pressure in the rat. To be noted: s.c., 40 minute period after administration. It is filed as in vivo. The arrangement: III(a) Increase in Intragastric Pressure Dose (minimum dose for activity): unit not given here. The method, then:
(a) Increase in intragastric pressure in the rat
Intragastric pressure changes were recorded from previously starved conscious but restrained rats using a saline filled catheter inserted into the lumen of the stomach via a permanent gastric fistula. The catheter was connected to a physiological pressure transducer and pressure changes recorded on a hot wire pen recorder. In each animal a pre-dose period of 40 minutes was allowed to obtain a measure of spontaneous activity. An index of activity was obtained by measuring the average height of pressure waves during 10 minute periods. Values for 4 such periods were obtained during assessment of spontaneous activity and for the 40 minute period after the subcutaneous administration of the compounds. Students `t` test was applied to the difference in average values obtained for spontaneous and post-compound activity.

The test system of a further experiment is vomiting response. The experiment in a line: Anti-emetic activity in the dog (apomorphine induced vomiting). It is filed as in vivo. The settings on record: Canis lupus familiaris, s.c., 30 min before apomorphine HCl 0.1 mg/kg s.c., complete inhibition, read-out: II Anti-Emetic Activity Dose, Complete Inhibition. The method, then: II. Anti-emetic activity in the dog
Compounds were administered subcutaneously 30 minutes prior to administration of a standard dose of apomorphine HCl (0.1 mg/kg subcutaneously) and the vomiting response compared to that obtained when the same animals were dosed with apomorphine HCl and vehicle only.

Experiment [6] in a line: Anti-obesity activity (single compound test). Format: in vivo.

T1 sequence (P61169 whole entry): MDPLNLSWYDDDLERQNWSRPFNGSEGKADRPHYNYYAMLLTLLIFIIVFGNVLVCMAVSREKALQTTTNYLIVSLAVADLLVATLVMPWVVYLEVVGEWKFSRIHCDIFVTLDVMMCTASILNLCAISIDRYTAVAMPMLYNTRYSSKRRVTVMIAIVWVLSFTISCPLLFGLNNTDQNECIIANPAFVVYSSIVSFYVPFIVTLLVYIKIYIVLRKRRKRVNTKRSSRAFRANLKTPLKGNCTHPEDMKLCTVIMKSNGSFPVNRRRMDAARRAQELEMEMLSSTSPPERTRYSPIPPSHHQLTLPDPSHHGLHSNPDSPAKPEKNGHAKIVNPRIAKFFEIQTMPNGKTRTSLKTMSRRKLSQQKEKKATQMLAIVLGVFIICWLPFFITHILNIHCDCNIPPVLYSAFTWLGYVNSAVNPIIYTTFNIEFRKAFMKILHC

Take `COc1cc(N)c(Cl)cc1C(=O)N[C@H]1C[C@H]2CC[C@@H](C1)N2C` [Compound 20, 4-amino-5-chloro-2-methoxy-N-(3'α-[8'-methyl-8'-azabicyclo[3.2.1]-octyl])-benzamide]: in experiment [1], the anti-arrhythmic activity result is “anti-arrhythmic activity”.

Regarding `O=C(CCCN1CCC2(CC1)C(=O)NCN2c1ccccc1)c1ccc(F)cc1` [[3H]-spiroperidol], the “binding to dopamine receptors in the brain” value on dopamine receptor [2] is “high affinity”.

Take `CCCCN1[C@@H]2CC[C@H]1C[C@@H](NC(=O)c1cc(Cl)c(N)cc1OC)C2` [Compound 27, 4-amino-5-chloro-2-methoxy-N-(3'α-[8'-n-butyl-8'-azabicyclo[3.2.1]-octyl])benzamide]: the “I(b) Anti-Climbing Activity Dose, Complete Inhibition” value in the experiment on Dopamine Receptor [3] was “IA (inactive at 10 mg/Kg p.o.)”. The inhibition at 10 µM on dopamine receptor [4] was 66%. Also, the “I(a) Dose Inhibiting Stereotype Behaviour (dose for complete inhibition)” value in the experiment on Dopamine Receptor [5] is on record as “IA(10)”. Also, the “III(b) Increase in Gastric Emptying” value with gastric emptying is “IA(10)”. The “III(a) Increase in Intragastric Pressure Dose (minimum dose for activity)” value in the experiment on intragastric pressure is “IA(10)”. In the experiment with vomiting response, the ED100 came out at 1 mg/kg.

With `COc1cc(N)c(Cl)cc1C(=O)N[C@@H]1C[C@H]2CC[C@@H](C1)N2Cc1ccccc1` [Compound 5, 4-amino-5-chloro-2-methoxy-N-(3'β-[8'-benzyl]8-azabicyclo[3.2.1]octyl)benzamide], the “I(b) Anti-Climbing Activity Dose, ED50” value in the experiment on Dopamine Receptor [3] (ED50) is reported as 0.03 mg/kg. Also, the “I(a) Dose Inhibiting Stereotype Behaviour (dose for complete inhibition)” value in the experiment with Dopamine Receptor [5] was determined as 0.05 mg/kg. Besides, in the experiment on gastric emptying (sc, read-out: dose that significantly increases gastric emptying), the minimal effective dose worked out at 0.05 mg/kg. Further, the anti-obesity activity result in experiment [6] is “anti-obesity activity”. Further, the ED100 in the experiment on vomiting response came out at 0.001 mg/kg.

For the compound `COc1cc(N)c(Cl)cc1C(=O)N[C@@H]1C[C@H]2CC[C@@H](C1)N2C` [Compound 19, 4-Amino-5-chloro-2-methoxy-N-(3'β-[8'-methy-8'-azabicyclo[3.2.1]-octyl])-benzamide], the “I(b) Anti-Climbing Activity Dose, Complete Inhibition” value with Dopamine Receptor [3] was “IA (inactive at 10 mg/Kg p.o.)”. For the same compound, at dopamine receptor [4], the inhibition at 10 µM came out at 64%. Besides, in the experiment on Dopamine Receptor [5], the “I(a) Dose Inhibiting Stereotype Behaviour (dose for complete inhibition)” value is “IA(25)”. For the same compound, the “III(b) Increase in Gastric Emptying” value in the experiment on gastric emptying is given as 25%. Moreover, the minimal effective dose in the experiment with intragastric pressure (sc, 40 min, read-out: III(a) Increase in Intragastric Pressure Dose (minimum dose for activity)) lay in the range of 1 to 10 mg/kg. Also, in the experiment on vomiting response, the ED100 was determined as 0.6 mg/kg.
